Experimental data as given in the NIST ThermoML archive (doi:10.1016/j.fluid.2008.09.004).

Legend:
[1] = xn = mol fraction of the nth substance listed; settings: 101 kPa, Liquid, Vibrating tube method
[2] = molar heat capacity at constant pressure; xn = mol fraction of the nth substance listed; settings: 101 kPa, Liquid, Small sample (50 mg) DSC
[3] = excess molar enthalpy (molar enthalpy of mixing); xn = mol fraction of the nth substance listed; settings: 303.15 K, 101 kPa, Liquid, Calvet calorimetry

CCCCCCn1cc[n+](C)c1.F[B-](F)(F)F [1-hexyl-3-methylimidazolium tetrafluoroborate] + CCO
Settings | mass density, [1] [kg/m3] | molar heat capacity at constant pressure, [2] [J/K/mol]
293.15 K, x1 = 0.1052 | 904.3 | 152
293.15 K, x1 = 0.2011 | 969.7 | 184.5
293.15 K, x1 = 0.2832 | 1009.1 | 209.9
293.15 K, x1 = 0.3846 | 1045.5 | 240.4
293.15 K, x1 = 0.4943 | 1075.1 | 272.3
293.15 K, x1 = 0.5486 | 1086.6 | 288
293.15 K, x1 = 0.6882 | 1111.6 | 328.8
293.15 K, x1 = 0.7748 | 1124 | –
293.15 K, x1 = 0.7879 | – | 358.6
293.15 K, x1 = 0.7988 | 1127.1 | –
293.15 K, x1 = 0.8521 | 1133.6 | –
293.15 K, x1 = 0.8791 | – | 387.1
298.15 K, x1 = 0.1052 | 900.2 | 153.6
298.15 K, x1 = 0.2011 | 965.8 | 185.9
298.15 K, x1 = 0.2832 | 1005.2 | 211.4
298.15 K, x1 = 0.3846 | 1041.7 | 241.8
298.15 K, x1 = 0.4943 | 1071.4 | 273.8
298.15 K, x1 = 0.5486 | 1082.9 | 289.7
298.15 K, x1 = 0.6882 | 1108 | 330.9
298.15 K, x1 = 0.7748 | 1120.5 | –
298.15 K, x1 = 0.7879 | – | 360.8
298.15 K, x1 = 0.7988 | 1123.6 | –
298.15 K, x1 = 0.8521 | 1130.1 | –
298.15 K, x1 = 0.8791 | – | 389.4
303.15 K, x1 = 0.1052 | 896.2 | 155
303.15 K, x1 = 0.2011 | 961.8 | 187.3
303.15 K, x1 = 0.2832 | 1001.4 | 212.8
303.15 K, x1 = 0.3846 | 1037.9 | 243
303.15 K, x1 = 0.4943 | 1067.7 | 275.2
303.15 K, x1 = 0.5486 | 1079.3 | 291.3
303.15 K, x1 = 0.6882 | 1104.4 | 332.9
303.15 K, x1 = 0.7748 | 1117 | –
303.15 K, x1 = 0.7879 | – | 363
303.15 K, x1 = 0.7988 | 1120.1 | –
303.15 K, x1 = 0.8521 | 1126.6 | –
303.15 K, x1 = 0.8791 | – | 391.6
308.15 K, x1 = 0.1052 | 892.1 | 156.6
308.15 K, x1 = 0.2011 | 957.9 | 188.6
308.15 K, x1 = 0.2832 | 997.6 | 214.1
308.15 K, x1 = 0.3846 | 1034.2 | 244.4
308.15 K, x1 = 0.4943 | 1064 | 276.7
308.15 K, x1 = 0.5486 | 1075.6 | 293
308.15 K, x1 = 0.6882 | 1100.9 | 334.9
308.15 K, x1 = 0.7748 | 1113.5 | –
308.15 K, x1 = 0.7879 | – | 365
308.15 K, x1 = 0.7988 | 1116.6 | –
308.15 K, x1 = 0.8521 | 1123.1 | –
308.15 K, x1 = 0.8791 | – | 393.9
313.15 K, x1 = 0.1052 | 888 | 158.1
313.15 K, x1 = 0.2011 | 954 | 189.9
313.15 K, x1 = 0.2832 | 993.7 | 215.4
313.15 K, x1 = 0.3846 | 1030.4 | 245.7
313.15 K, x1 = 0.4943 | 1060.4 | 278.1
313.15 K, x1 = 0.5486 | 1072 | 294.6
313.15 K, x1 = 0.6882 | 1097.4 | 336.9
313.15 K, x1 = 0.7748 | 1110 | –
313.15 K, x1 = 0.7879 | – | 367.1
313.15 K, x1 = 0.7988 | 1113.1 | –
313.15 K, x1 = 0.8521 | 1119.7 | –
313.15 K, x1 = 0.8791 | – | 396.1
318.15 K, x1 = 0.1052 | 883.9 | 159.8
318.15 K, x1 = 0.2011 | 950 | 191.2
318.15 K, x1 = 0.2832 | 989.8 | 216.7
318.15 K, x1 = 0.3846 | 1026.7 | 247.1
318.15 K, x1 = 0.4943 | 1056.7 | 279.6
318.15 K, x1 = 0.5486 | 1068.4 | 296.2
318.15 K, x1 = 0.6882 | 1093.8 | 338.9
318.15 K, x1 = 0.7748 | 1106.5 | –
318.15 K, x1 = 0.7879 | – | 369
318.15 K, x1 = 0.7988 | 1109.6 | –
318.15 K, x1 = 0.8521 | 1116.2 | –
318.15 K, x1 = 0.8791 | – | 398.3

[3]
Settings | excess molar enthalpy [kcal/mol]
x1 = 0.101 | 0.322
x1 = 0.2037 | 0.489
x1 = 0.3018 | 0.576
x1 = 0.3977 | 0.614
x1 = 0.4988 | 0.592
x1 = 0.6045 | 0.522
x1 = 0.6901 | 0.443
x1 = 0.7932 | 0.314
x1 = 0.8733 | 0.203
